Measured values taken from PubChem BioAssay (NCI).
“And” between values parts separate entries of the source, which are not always exact repeats. Equal values may be shown once.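 Test compounds were applied to cells in 96-well plates for 48 hours at 5 doses. The concentration for 50% growth inhibition is given as GI50. The concentration for full growth arrest is given as TGI.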

What was measured:
Test in all cases: DTP human tumour cell line panel, 48 h
HOP-62 NSCLC = test system: HOP-62 NSCLC
HT29 colon = test system: HT29 colon
MALME-3M melanoma = test system: MALME-3M melanoma
CCRF-CEM leukemia = test system: CCRF-CEM leukemia
M14 melanoma = test system: M14 melanoma
DMS 273 small cell lung = test system: DMS 273 small cell lung
NCI-H460 lung = test system: NCI-H460 lung
COLO 205 colon = test system: COLO 205 colon
DU-145 prostate = test system: DU-145 prostate
M19-MEL melanoma = test system: M19-MEL melanoma

| SMILES | TGI (HOP-62 NSCLC) | TGI (HT29 colon) | TGI (MALME-3M melanoma) | TGI (CCRF-CEM leukemia) | TGI (M14 melanoma) [µM] | TGI (DMS 273 small cell lung) [µM] | TGI (NCI-H460 lung) [µM] | TGI (COLO 205 colon) | GI50 (DU-145 prostate) [µM] | TGI (DU-145 prostate) [µM] | TGI (M19-MEL melanoma) [µM] | GI50 (HT29 colon) [µM] | GI50 (MALME-3M melanoma) | GI50 (CCRF-CEM leukemia) | GI50 (NCI-H460 lung) | GI50 (COLO 205 colon) [µM] | GI50 (HOP-62 NSCLC) [µM] | GI50 (M14 melanoma) [µM] | GI50 (DMS 273 small cell lung) [µM] | GI50 (M19-MEL melanoma) [µM] |
| --- | --- | --- | --- | --- | --- | --- | --- | --- | --- | --- | --- | --- | --- | --- | --- | --- | --- | --- | --- | --- |
| CCOC(=O)NC1C2CC(=O)OC(O2)C1OC(C)=O (configuration not stated) | > 100 µM | > 100 µM | > 100 µM | > 100 µM | > 100 | > 100 | > 100 | > 100 µM | > 100 | > 100 | > 100 | – | – | – | – | – | – | – | – | – |
| C[C@]12CC[C@H](OC3OC(CO)C(O)C(O)C3O)C[C@H]1CC[C@@H]1[C@@H]2CC[C@]2(C)[C@@H](C3=CCOC3=O)CC[C@]12O (some centres not stated) | 13.8 µM and > 100 µM and 50.3 µM | 50 µM and > 100 µM | 20.4 µM and > 100 µM | 50 µM and > 100 µM | > 100 | 25.1 | 29.4 | 50 µM and > 100 µM | 70.6 | > 100 | 37.9 | > 100 | 23 µM and 16.2 µM | 23.4 µM and > 100 µM | 0.943 µM and 4.26 µM | > 100 | – | – | – | – |
| c1ccc2c(NCCCCCCNc3c4ccccc4nc4ccccc34)c3ccccc3nc2c1 | 2.21 µM | 1.77 µM | 2.49 µM | 1.58 µM | 2.58 | 1.35 | – | 1.58 µM | – | 2.76 | 2.48 | – | – | – | – | – | – | – | – | – |
| Cc1ccc(/C(O)=C/c2nc3c(nc2NC24CC5CC(CC(C5)C2)C4)c(=O)oc2ccccc23)cc1 | > 100 µM | > 100 µM | > 100 µM | > 100 µM | > 100 | > 100 | > 100 | > 100 µM | – | – | > 100 | – | – | – | – | – | – | – | – | – |
| CC(C)[O-].CC(C)[O-].O=C1C=C([O-])C(=O)c2ccccc21.O=C1C=C([O-])C(=O)c2ccccc21.[Ti+4] | > 100 µM | > 100 µM | > 100 µM | > 100 µM | > 100 | > 100 | > 100 | > 100 µM | – | – | > 100 | 34.9 | 14.7 µM | > 73 µM | 15.3 µM | 30 | > 100 | 17.8 | 34.9 | 4.42 |
| COc1ccc(NC(=O)CC/C(CC(=O)C(C)(C)C)=N\NC(=O)C(=O)NN)cc1 | > 100 µM | > 100 µM | > 100 µM | > 100 µM | > 100 | > 100 | > 100 | > 100 µM | – | – | > 100 | – | – | – | – | – | – | – | – | – |
| C=C1C(=O)OC2C1CCC(C)C1C=CC(=O)C12C (configuration not stated) | 41.1 µM | 4.53 µM | 7.47 µM | 8.54 µM | 4.85 | 23.5 | 18.9 | 5.74 µM | – | 7.36 | 14.4 | – | – | – | – | – | – | – | – | – |
